The structures appear in SMILES notation. Where only a bound is given, the exact number is not on record here.

The test system of this assay is eNOS promoter. Briefly: Activation of eNOS transcription (eNOS promoter-luciferase reporter gene assay). The assay is classed as cell-based, human. Conditions: 18 h incubation; for EC50: EC50 of transcription induction ratio vs compound concentration, determined graphically, human endothelial cell line stably transfected with eNOS promoter-luciferase construct; for maximal fold induction / TIR(max): maximum transcription induction ratio (luciferase activity with compound / solvent alone), human endothelial cell line with eNOS promoter-luciferase construct; for maximal fold induction: read-out: TIR(max). The method, then:
Measurement of Activation of eNOS Transcription
Activation of eNOS transcription was measured as described in detail in Li et al. “Activation of protein kinase C alpha and/or epsilon enhances transcription of the human endothelial nitric oxide synthase gene”, Mol. Pharmacol. 1998; 53: 630-637.
Briefly, a 3.5 kB long fragment 5′ of the starting codon of the eNOS gene was cloned, sequenced and cloned in firefly luciferase expression plasmids to monitor activation of the eNOS promoter by reporter gene activity. A human endothelial cell line stable transfected and expressing this promoter-reporter construct was used for compound testing. Cells were incubated for 18 h with compounds.
All compounds were dissolved in sterile DMSO. A final concentration of 0.5% DMSO in complete medium was allowed. Induction of reporter gene expression in these cells was measured using a standard luciferase assay system (Promega, Cat. No E150) according to the manufacturer's instructions. Luciferase induction in cells incubated with compounds were compared to those incubated with solvent alone. The ratio of both activities (transcription induction ratio, TIR) was plotted as a function of compound concentration. Typically, TIR values started at low concentrations at a ratio of 1, indicating no compound effect, and extended up to a maximum TIR value TIR(max) which indicates the increase of the eNOS transcription. EC50 values of transcription induction ratios as a function of compound concentration were determined graphically.

`Nc1ncccc1C(=O)NC1CCCc2ccccc2C1` (single isomer, unassigned) [Compound 24, 2-AMINO-N-(6,7,8,9-TETRAHYDRO-5H-BENZOCYCLOHEPTEN-6-YL)-NICOTINAMIDE]: the EC50 worked out at 30 nM and the maximal fold induction came to 3.1.

Consider `Cc1ncccc1C(=O)NC1CCCc2ccccc2C1` (single isomer, unassigned) [Compound 26, 2-METHYL-N-(6,7,8,9-TETRAHYDRO-5H-BENZOCYCLOHEPTEN-6-YL)-NICOTINAMIDE], for which the half-maximal effective concentration (EC50) is 1800 nM and the maximal fold induction was determined as 3.1.

Regarding `Cc1nc(C)c(C(=O)NC2CCCc3ccccc3C2)s1` (single isomer, unassigned) [Compound 28, 2,4-DIMETHYL-THIAZOLE-5-CARBOXYLIC ACID (6,7,8,9-TETRAHYDRO-5H-BENZOCYCLOHEPTEN-6-YL)-AMIDE], the concentration for a half-maximal effect (EC50) came out at 49 nM and the maximal fold induction worked out at 3.4.

`Cc1nc(C)c(C(=O)NC2CCCc3ccccc3C2)s1` (single isomer, unassigned) [Compound 29, 2,4-DIMETHYL-THIAZOLE-5-CARBOXYLIC ACID (6,7,8,9-TETRAHYDRO-5H-BENZOCYCLOHEPTEN-6-YL)-AMIDE]: the EC50 is 9600 nM and the “TIR(max)” value was 3.4.

`Cc1c(C(=O)NC2CCCc3ccccc3C2)cnn1-c1ccccc1` (single isomer, unassigned) [Compound 31, 5-METHYL-1-PHENYL-1H-PYRAZOLE-4-CARBOXYLIC ACID (6,7,8,9-TETRAHYDRO-5H-BENZOCYCLOHEPTEN-6-YL)-AMIDE]: the 50% effective concentration (EC50) stood at 5000 nM and the maximal fold induction came to 2.8.

Take `Cc1cnc(C(=O)NC2CCCc3ccccc3C2)cn1` (single isomer, unassigned) [Compound 32, 5-METHYL-PYRAZINE-2-CARBOXYLIC ACID (6,7,8,9-TETRAHYDRO-5H-BENZOCYCLOHEPTEN-6-YL)-AMIDE]: the 50% effective concentration (EC50) came to 47 nM and the maximal fold induction amounted to 3.

In the case of `Cc1cnc(C(=O)NC2CCCc3ccccc3C2)cn1` (single isomer, unassigned) [Compound 33, 5-METHYL-PYRAZINE-2-CARBOXYLIC ACID (6,7,8,9-TETRAHYDRO-5H-BENZOCYCLOHEPTEN-6-YL)-AMIDE], the EC50 is 3300 nM and the “TIR(max)” value is listed as 2.6.

Regarding `O=C(NC1CCCc2ccccc2C1)c1cnn(-c2ccccc2)c1C(F)(F)F` (single isomer, unassigned) [Compound 34, 1-PHENYL-5-TRIFLUOROMETHYL-1H-PYRAZOLE-4-CARBOXYLIC ACID (6,7,8,9-TETRAHYDRO-5H-BENZOCYCLOHEPTEN-6-YL)-AMIDE], the concentration giving a half-maximal response (EC50) was 60 nM and the maximal fold induction turned out to be 2.8.

Take `O=C(NC1CCCc2ccccc2C1)c1cnn(-c2ccccc2)c1C(F)(F)F` (single isomer, unassigned) [Compound 35, 1-PHENYL-5-TRIFLUOROMETHYL-1H-PYRAZOLE-4-CARBOXYLIC ACID (6,7,8,9-TETRAHYDRO-5H-BENZOCYCLOHEPTEN-6-YL)-AMIDE]: the concentration for a half-maximal effect (EC50) amounted to 3300 nM and the “TIR(max)” value is recorded as 3.5.

`O=C(NC1CCCc2ccccc2C1)c1ccc(C(F)(F)F)nc1` (single isomer, unassigned) [Compound 37, N-(6,7,8,9-TETRAHYDRO-5H-BENZOCYCLOHEPTEN-6-YL)-6-TRIFLUOROMETHYL-NICOTINAMIDE]: the 50% effective concentration (EC50) is 283 nM and the maximal fold induction amounted to 2.9.

In the case of `Cc1nc(C(F)(F)F)ccc1C(=O)NC1CCCc2ccccc2C1` (single isomer, unassigned) [Compound 39, 2-METHYL-N-(6,7,8,9-TETRAHYDRO-5H-BENZOCYCLOHEPTEN-6-YL)-6-TRIFLUOROMETHYL-NICOTINAMIDE], the half-maximal effective concentration (EC50) was determined as 496 nM and the maximal fold induction came out at 2.9.

`CN(C)c1cccc(C(=O)NC2CCCc3ccccc3C2)c1` (single isomer, unassigned) [Compound 43, 3-DIMETHYLAMINO-N-(6,7,8,9-TETRAHYDRO-5H-BENZOCYCLOHEPTEN-6-YL)-BENZAMIDE]: the 50% effective concentration (EC50) worked out at 80 nM and the maximal fold induction came out at 3.2.

Turning to `Nc1nccnc1C(=O)NC1CCCc2ccccc2C1` (single isomer, unassigned) [Compound 45, 3-AMINO-PYRAZINE-2-CARBOXYLIC ACID (6,7,8,9-TETRAHYDRO-5H-BENZOCYCLOHEPTEN-6-YL)-AMIDE], the EC50 came out at 60 nM and the maximal fold induction amounted to 2.9.

Turning to `Cc1ccc(C(=O)NC2CCCc3ccccc3C2)cn1` (single isomer, unassigned) [Compound 54, 6-METHYL-N-(6,7,8,9-TETRAHYDRO-5H-BENZOCYCLOHEPTEN-6-YL)-NICOTINAMIDE], the EC50 was 42 nM and the maximal fold induction is 3.2.

Regarding `Cc1cc(C)c(C(=O)NC2CCCc3ccccc3C2)cn1` (single isomer, unassigned) [Compound 110, 4,6-DIMETHYL-N-(6,7,8,9-TETRAHYDRO-5H-BENZOCYCLOHEPTEN-6-YL)-NICOTINAMIDE], the EC50 was determined as 1000 nM and the maximal fold induction is 3.1.

Take `Cc1ccc(C(=O)NC2CCCc3ccccc3C2)c(C)n1` (single isomer, unassigned) [Compound 112, 2,6-DIMETHYL-N-(6,7,8,9-TETRAHYDRO-5H-BENZOCYCLOHEPTEN-6-YL)-NICOTINAMIDE]: the EC50 is 40 nM and the maximal fold induction was determined as 3.1.

For the compound `CNc1nc(C)ccc1C(=O)NC1CCCc2ccccc2C1` (single isomer, unassigned) [Compound 123, 6-METHYL-2-METHYLAMINO-N-(6,7,8,9-TETRAHYDRO-5H-BENZOCYCLOHEPTEN-6-YL)-NICOTINAMIDE], the EC50 amounted to 260 nM and the maximal fold induction was found to be 2.9.

`CNc1nc(C)ccc1C(=O)NC1CCCc2ccccc2C1` (single isomer, unassigned) [Compound 124, 6-METHYL-2-METHYLAMINO-N-(6,7,8,9-TETRAHYDRO-5H-BENZOCYCLOHEPTEN-6-YL)-NICOTINAMIDE]: the EC50 was determined as 6 nM and the “TIR(max)” value stood at 2.9.

`O=C(NC1CCCc2ccccc2C1)c1ccc(F)cc1` (single isomer, unassigned; (+)) [Compound 1b, (+)-4-Fluoro-N-(6,7,8,9-tetrahydro-5H-benzocyclohepten-6-yl)-benzamide]: the EC50 came out at 6000 nM and the “TIR(max)” value is on record as 2.9.

Take `Cc1cc(C(=O)NC2CCCc3ccccc3C2)c(C)n1Cc1ccncc1` (single isomer, unassigned; (+)) [Compound 47, (+)-2,5-DIMETHYL-1-PYRIDIN-4-YLMETHYL-1H-PYRROLE-3-CARBOXYLIC ACID (6,7,8,9-TETRAHYDRO-5H-BENZOCYCLOHEPTEN-6-YL)-AMIDE]: the half-maximal effective concentration (EC50) was 20 nM and the maximal fold induction is 3.4.

Take `Cc1cc(C(=O)NC2CCCc3ccccc3C2)c(C)[nH]1` (single isomer, unassigned; (+)) [Compound 49, (+)-2,5-DIMETHYL-1H-PYRROLE-3-CARBOXYLIC ACID (6,7,8,9-TETRAHYDRO-5H-BENZOCYCLOHEPTEN-6-YL)-AMIDE]: the concentration for a half-maximal effect (EC50) came to 40 nM and the maximal fold induction is 3.

For the compound `O=C(NC1CCCc2ccccc2C1)c1ccnc(N2CCCC2)c1` (single isomer, unassigned; (+)) [Compound 149, (+)-2-PYRROLIDIN-1-YL-N-(6,7,8,9-TETRAHYDRO-5H-BENZOCYCLOHEPTEN-6-YL)-ISONICOTINAMIDE], the EC50 is 3400 nM and the maximal fold induction is 3.

Regarding `O=C(NC1CCCc2ccccc2C1)c1ccc(F)cc1` (single isomer, unassigned; (-)) [Compound 1a, (−)-4-Fluoro-N-(6,7,8,9-tetrahydro-5H-benzocyclohepten-6-yl)-benzamide], the EC50 turned out to be 1 nM and the “TIR(max)” value was found to be 3.2.

Take `Cc1cc(C(=O)NC2CCCc3ccccc3C2)c(C)n1Cc1ccncc1` (single isomer, unassigned; (-)) [Compound 48, (−)-2,5-DIMETHYL-1-PYRIDIN-4-YLMETHYL-1H-PYRROLE-3-CARBOXYLIC ACID (6,7,8,9-TETRAHYDRO-5H-BENZOCYCLOHEPTEN-6-YL)-AMIDE]: the EC50 came out at 590 nM and the “TIR(max)” value is recorded as 3.4.

Regarding `Cc1cc(C(=O)NC2CCCc3ccccc3C2)c(C)[nH]1` (single isomer, unassigned; (-)) [Compound 50, (−)-2,5-DIMETHYL-1H-PYRROLE-3-CARBOXYLIC ACID (6,7,8,9-TETRAHYDRO-5H-BENZOCYCLOHEPTEN-6-YL)-AMIDE], the EC50 is 1800 nM and the “TIR(max)” value stood at 3.

For `O=C(NC1CCCc2ccccc2C1)c1nc(NCc2ccccc2)ccc1Cl` (centres unmarked) [143 B], the half-maximal effective concentration (EC50) is 28000 nM and the “TIR(max)” value is recorded as 2.5.

Regarding `Cc1cc(Cl)ccc1C(=O)NC1CCCc2ccccc2C1` (centres unmarked) [Compound 3, 4-CHLORO-2-METHYL-N-(6,7,8,9-TETRAHYDRO-5H-BENZOCYCLOHEPTEN-6-YL)-BENZAMIDE], the 50% effective concentration (EC50) was < 80 nM and the maximal fold induction came to 2.2.

In the case of `O=C(NC1CCCc2ccccc2C1)c1ccc(F)cc1Cl` (centres unmarked) [Compound 4, 2-CHLORO-4-FLUORO-N-(6,7,8,9-TETRAHYDRO-5H-BENZOCYCLOHEPTEN-6-YL)-BENZAMIDE], the concentration for a half-maximal effect (EC50) is < 80 nM and the maximal fold induction turned out to be 2.8.

For the origin of these results see US7709478B2, “Acylated 6,7,8,9-tetrahydro-5H-benzocycloheptenyl amines and their use as pharmaceutical agents” (sanofi-aventis Deutschland GmbH, priority 2001, dated 2010).
